Test results as given in patent US4263326A, “Antimicrobial compositions containing an octylphenone” (The Lion Dentrifice Co. Ltd., priority 1978, dated 1981).
Like-named read-outs stand apart in the source and are kept apart here.

How the values were obtained:
Bacillus subtilis = experiment: Growth prevention of Bacillus subtilis in tripticase soy broth culture media at 37° C; format: cell-based
Procedure: For comparative purpose, three more culture media were prepared without addition of an antimicrobial agnet or with addition of 2% by weight of ethyl alcohol or 0.2% by weight of sorbic acid instead of the phenone compound and Bacillus subtilis was cultured therein similarly.

Aspergillus niger = test system: Aspergillus niger; set-up: key to the marks not given beside the values; details: 5%, 28° C
Procedure: (§1) The antifungal effect of the extract powder prepared in Example 2 was examined by adding it into potato-dextrose agar culture media in an amount of 0.2% by weight in which Aspergillus niger or Penicillium crysogenum were cultured at 28° C. For comparison, similar culture tests of the fungi were undertaken with the culture media in which no antimicrobial agent was added or 5% by weight of ethyl alcohol was added instead of the extract powder.
(§2) the results are summarized in Table 2 below, in which the marks "±" are for the cases where the growth of the molds was difficultly recognized, the marks "+" are for the cases where the growth of the molds could be recognized only of the hyphae though to a small extent, the mark "++" are for the cases where the growth could be recognized only of the hyphae to a considerable extent, and the marks "+++" and "++++" are for the cases where spores were formed.

Penicillium crysogenum = details: 5%, 28° C
Procedure: as §1, §2

Oral LD50 in rats = format: in vivo; details: rat, in vivo, po
rats = experiment: Oral LD50 in rats; format: in vivo
[1] = Irritancy / physiological activity

With `C/C=C/C=C/C(=O)O` [Sorbic acid, reference compound] the “duration of antimicrobial effect” value (Bacillus subtilis; 0.2% by weight, tripticase soy broth) was “about 4.5 hours”.
In the case of `CCO` [Ethyl alcohol], the growth of mold (Aspergillus niger; 10 days) is reported as “++”, the growth of mold (Aspergillus niger; 18 days) is reported as “++” and the growth of mold (Penicillium crysogenum; 10 days) is reported as “±”. For the same compound, the growth of mold (Penicillium crysogenum; 18 days) was “++”.
For `O=C(CCCCCCCCc1cc(O)ccc1O)c1c(O)cccc1O` [2',6'-dihydroxy-9-(2,5-dihydroxyphenyl)octylphenone], the “duration of growth prevention” value (Bacillus subtilis; 0.002% by weight, tripticase soy broth) was ≥ 7.5 h, the “effectiveness compared with sorbic acid” value (Bacillus subtilis; 0.002% vs sorbic acid 0.2%) was “more effective than sorbic acid” and the “antimicrobial effect compared with sorbic acid” value (Bacillus subtilis; concentration one hundredth of that of sorbic acid) was “as good as that of sorbic acid”. The LD50 (Oral LD50 in rats) was ≥ 2000 mg/kg, the LD50 (rats) was 2000 mg/kg and the irritancy [1] was “non-irritant”. The physiological activity [1] was “physiologically inactive”.
